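Five concentrations, 48 hours, 96-well plates. GI50 marks 50% less growth. TGI: concentration producing complete growth inhibition.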
Tests used:
Assay in all cases: inhibition of tumour cell growth, NCI panel, 48 h
[1] = test system: KM12 colon
[2] = test system: HL-60(TB) leukemia
[3] = test system: HOP-62 NSCLC
[4] = test system: HOP-92 NSCLC
[5] = test system: SK-MEL-5 melanoma
[6] = test system: NCI-H23 lung
[7] = test system: SK-MEL-2 melanoma
[8] = test system: SN12C renal
[9] = test system: U251 CNS
[10] = test system: K-562 leukemia
[11] = test system: OVCAR-8 ovarian
[12] = test system: TK-10 renal
[13] = test system: UACC-257 melanoma
[14] = test system: SF-268 CNS
[15] = test system: HCT-15 colon
[16] = test system: SNB-75 CNS
[17] = test system: RXF 393 renal
[18] = test system: NCI-H522 lung
[19] = test system: HCT-116 colon
[20] = test system: OVCAR-4 ovarian
[21] = test system: OVCAR-3 ovarian
[22] = test system: SK-MEL-28 melanoma
[23] = test system: NCI-H226 lung
[24] = test system: MALME-3M melanoma
[25] = test system: 786-0 renal
[26] = test system: SW-620 colon
[27] = test system: A549 NSCLC
[28] = test system: T-47D breast
[29] = test system: HT29 colon
[30] = test system: DU-145 prostate
[31] = test system: ACHN renal
[32] = test system: UACC-62 melanoma
[33] = test system: SF-539 CNS
[34] = test system: SR leukemia
[35] = test system: COLO 205 colon
[36] = test system: NCI/ADR-RES ovarian
[37] = test system: CCRF-CEM leukemia
[38] = test system: MCF7 breast
[39] = test system: SK-OV-3 ovarian
[40] = test system: RPMI-8226 leukemia
[41] = test system: BT-549 breast
[42] = test system: OVCAR-5 ovarian
[43] = test system: HCC-2998 colon
[44] = test system: HS 578T breast
[45] = test system: IGROV1 ovarian
[46] = test system: CAKI-1 renal
[47] = test system: MOLT-4 leukemia
[48] = test system: NCI-H460 lung
[49] = test system: A498 renal
[50] = test system: MDA-MB-231 breast
[51] = test system: LOX IMVI melanoma
[52] = test system: SF-295 CNS
[53] = test system: UO-31 renal
[54] = test system: M14 melanoma
[55] = test system: PC-3 prostate
[56] = test system: EKVX NSCLC
[57] = test system: MDA-MB-435

## Cc1cc(C)c(-c2c(O)c(Br)c(-c3c(C)cc(C)c(Br)c3C)c(O)c2Br)c(C)c1Br
[1]
  GI50: 3.47 µM
  TGI: 13.1 µM
[2]
  GI50: 1.68 µM
  TGI: 9.67 µM
[3]
  GI50: 2.81 µM
  TGI: 10.1 µM
[4]
  GI50: 0.66 µM
  TGI: 5.67 µM
[5]
  GI50: 1.77 µM
  TGI: 4.24 µM
[6]
  GI50: 3.21 µM
  TGI: 11.8 µM
[7]
  GI50: 2 µM
  TGI: 6.2 µM
[8]
  GI50: 2.69 µM
  TGI: 15 µM
[9]
  GI50: 2.28 µM
  TGI: 8.54 µM
[10]
  GI50: 2.65 µM
  TGI: 13.9 µM
[11]
  GI50: 3.08 µM
  TGI: 10.4 µM
[12]
  GI50: 3.37 µM
  TGI: 13.4 µM
[13]
  GI50: 2.52 µM
  TGI: 12.2 µM
[14]
  GI50: 3.7 µM
  TGI: 16.4 µM
[15]
  GI50: 2.51 µM
  TGI: 10.8 µM
[16]
  GI50: 1.88 µM
  TGI: 10.3 µM
[17]
  GI50: 2.27 µM
  TGI: 7.31 µM
[18]
  GI50: 1.67 µM
  TGI: 3.6 µM
[19]
  GI50: 2.13 µM
  TGI: 5.53 µM
[20]
  GI50: 2.56 µM
  TGI: 9.92 µM
[21]
  GI50: 2.33 µM
  TGI: 10.8 µM
[22]
  GI50: 2.66 µM
  TGI: 12.8 µM
[23]
  GI50: 2.54 µM
  TGI: 9.52 µM
[24]
  GI50: 1.65 µM
  TGI: 5.8 µM
[25]
  GI50: 3.74 µM
  TGI: 14.3 µM
[26]
  GI50: 2.94 µM
  TGI: 12 µM
[27]
  GI50: 2.73 µM
  TGI: 11.7 µM
[28]
  GI50: 1.7 µM
  TGI: 4.84 µM
[29]
  GI50: 2.34 µM
  TGI: 10.2 µM
[30]
  GI50: 4.21 µM
  TGI: 16 µM
[31]
  GI50: 3.14 µM
  TGI: 13 µM
[32]
  GI50: 1.54 µM
  TGI: 4.04 µM
[33]
  GI50: 2.6 µM
  TGI: 8.11 µM
[34]
  GI50: 2.32 µM
  TGI: 8.29 µM
[35]
  GI50: 1.73 µM
  TGI: 3.54 µM
[36]
  GI50: 2.88 µM
  TGI: 10.7 µM
[37]
  GI50: 4.06 µM
  TGI: 20.2 µM
[38]
  GI50: 2.38 µM
  TGI: 11.8 µM
[39]
  GI50: 4.77 µM
  TGI: 23.8 µM
[40]
  GI50: 2.08 µM
  TGI: 11.9 µM
[41]
  GI50: 2.25 µM
  TGI: 10.5 µM
[42]
  GI50: 2.85 µM
  TGI: 9.63 µM
[43]
  GI50: 2.67 µM
  TGI: 7.31 µM
[44]
  GI50: 2.32 µM
  TGI: 11.9 µM
[45]
  GI50: 3.59 µM
  TGI: 13.9 µM
[46]
  GI50: 1.66 µM
  TGI: 5.99 µM
[47]
  GI50: 2.39 µM
  TGI: 13 µM
[48]
  GI50: 2.16 µM
  TGI: 6.5 µM
[49]
  GI50: 4.67 µM
  TGI: 20.5 µM
[50]
  GI50: 1.65 µM
  TGI: 4.42 µM
[51]
  GI50: 1.74 µM
  TGI: 3.39 µM
[52]
  GI50: 1.83 µM
  TGI: 5.01 µM
[53]
  GI50: 1.29 µM
  TGI: 8.22 µM
[54]
  GI50: 1.97 µM
  TGI: 4.71 µM
[55]
  GI50: 1.88 µM
  TGI: 8.76 µM
[56]
  GI50: 1.62 µM
  TGI: 8.86 µM
[57]
  GI50: 2.35 µM
  TGI: 8.55 µM

Reference: PubChem BioAssay (NCI)
